The values below come from patent US20140243322A1, “BIVALENT BROMODOMAIN LIGANDS, AND METHODS OF USING SAME” (Coferon, Inc., priority 2011, published 2014).

Each structure is given as a SMILES string.

Test [1] concerns the target N-terminal His 6-tagged BRD2 tandem protein. In words: Surface Plasmon Resonance (SPR) off-rate assay. It is filed as binding. As to conditions: immobilized BRD2 tandem protein; saturating concentrations injected 5 minutes, buffer 20 minutes. The protocol:
Surface Plasmon Resonance (SPR) Assay.
Off rates were determined using surface plasmon resonance measurements on a Bio-Rad ProteOn XPR 36 instrument. N-terminal His 6-tagged BRD2 tandem protein was immobilized by capturing on a ProteOn HTG sensor chip and then cross coupled to the surface using standard amine reactive chemistry. Selected bivalent inhibitors were injected on to the chip surface at saturating concentrations for 5 minutes followed by buffer for 20 minutes. The resulting sensorgrams were analyzed using the ProteOn XPR software to determine off-rates. Off rates for selected bivalent inhibitors were >100× slower when binding to the BRD2 tandem protein compared to the monovalent pharmacophores or compared to the bivalents binding to monobromodomain containing protein constructs.

Test [2] concerns MV4-11 cells. In words: Inhibition of MV4-11 cell proliferation (Cell-Titer Glo). The test is classed as cell-based. As to conditions: Homo sapiens, 72 hours of growth, read-out: GI50 range. How it is done:
Inhibition of MV4-11 Cell Proliferation.
MV4-11 cells (5000 cells in 50 μl volumes) in growth medium containing 10% FBS and 1% Pen/Strep were plated and grown overnight in 96 well plates and treated the next day with 3-fold dilutions of test compounds or with DMSO vehicle. After 72 hours of growth, 30 ul of Cell-Titer Glo reagent (Promega) was added to the wells and the plates incubated for 30 minutes. Luminescence was measured on a Spectramax M5 plate reader and GI50 values were calculated for each test compound.

Test [3] concerns Myc mRNA. In words: Inhibition of Myc expression (Myc mRNA) in MV4-11 cells. The test is classed as cell-based. To be noted: Homo sapiens, 4 hours of treatment, read-out: EC50 range, Myc mRNA normalized to GAPDH mRNA. The text has this: Inhibition of Myc Expression.

On to `CCNC(=O)C[C@@H]1N=C(c2ccc(Cl)cc2)c2cc(OCCCNC(=O)C[C@@H]3N=C(c4ccc(Cl)cc4)c4cc(OC)ccc4-n4c(C)nnc43)ccc2-n2c(C)nnc21` [BRD-B-02, N-(3-(((4S)-6-(4-chlorophenyl)-4-(2-(ethylamino)-2-oxoethyl)-1-methyl-4H-benzo[f][1,2,4]triazolo[4,3-a][1,4]diazepin-8-yl)oxy)propyl)-2-((4S)-6-(4-chlorophenyl)-8-methoxy-1-methyl-4H-benzo[f][1,2,4]triazolo[4,3-a][1,4]diazepin-4-yl)acetamide], for which, in test [1], the “kd (off rate)” value was found to be 0.00011 s⁻¹. Further, in test [2], the GI50 (as a rule, the concentration giving 50% growth inhibition) fell in the range of 0.1 to 30 nM. Moreover, the EC50 (in general, the concentration needed to bring the measured effect to its halfway point) in test [3] lay within 100 to 30000 nM.

With `CCNC(=O)C[C@@H]1N=C(c2ccc(Cl)cc2)c2cc(OCCOCCOCCOCCOCCOCCOCCOCCNC(=O)C[C@@H]3N=C(c4ccc(Cl)cc4)c4cc(OC)ccc4-n4c(C)nnc43)ccc2-n2c(C)nnc21` [BRD-B-15, N-(23-(((4S)-6-(4-chlorophenyl)-4-(2-(ethylamino)-2-oxoethyl)-1-methyl-4H-benzo[f][1,2,4]triazolo[4,3-a][1,4]diazepin-8-yl)oxy)-3,6,9,12,15,18,21-heptaoxatricosyl)-2-((4S)-6-(4-chlorophenyl)-8-methoxy-1-methyl-4H-benzo[f][1,2,4]triazolo[4,3-a][1,4]diazepin-4-yl)acetamide], the “kd (off rate)” value in test [1] was found to be 8.3e-05 s⁻¹. Besides, the GI50 in test [2] is 0.1 to 30 nM. In addition, the concentration for a half-maximal effect (EC50) in test [3] lay within 100 to 30000 nM.
